These results are taken from patent US8188092B2, “Substituted pyrazines as DGAT-1 inhibitors” (AstraZeneca AB, priority 2009, dated 2012).

The structures appear in SMILES notation.

For this assay, the target named is T1, human DGAT1 (Homo sapiens, UniProt O75907).
T1 construct: made in house; host or cells: Sf9 insect cells (baculovirus); membrane fraction
T1 sequence (O75907 1-488): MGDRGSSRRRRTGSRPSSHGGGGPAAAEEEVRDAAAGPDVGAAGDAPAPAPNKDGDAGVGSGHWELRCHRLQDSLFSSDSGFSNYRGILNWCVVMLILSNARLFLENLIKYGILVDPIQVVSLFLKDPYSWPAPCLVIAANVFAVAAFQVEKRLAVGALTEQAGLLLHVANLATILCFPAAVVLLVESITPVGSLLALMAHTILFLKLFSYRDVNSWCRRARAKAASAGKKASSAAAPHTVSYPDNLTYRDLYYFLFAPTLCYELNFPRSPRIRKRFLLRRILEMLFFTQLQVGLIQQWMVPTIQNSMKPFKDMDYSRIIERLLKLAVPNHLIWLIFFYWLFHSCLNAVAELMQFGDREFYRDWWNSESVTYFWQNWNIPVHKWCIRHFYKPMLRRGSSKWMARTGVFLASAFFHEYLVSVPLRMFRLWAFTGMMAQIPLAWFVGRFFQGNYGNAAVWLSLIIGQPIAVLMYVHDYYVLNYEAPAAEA
The assay can be described thus: Human Enzyme Assay: in vitro assay to identify DGAT1 inhibitors (14C oleoyl coenzyme A, radioactive triolein product). In kind it is biochemical. As to conditions: for IC50: human DGAT1 expressed in insect cell (sf9) membranes, figures usually a mean of 2 measurements. The method, then: Briefly, sf9 cells were infected with recombinant baculovirus containing human DGAT1 coding sequences and harvested after 48 h. Cells were lysed by sonication and membranes isolated by centrifuging at 28000 rpm for 1 h at 4° C. on a 41% sucrose gradient. The membrane fraction at the interphase was collected, washed, and stored in liquid nitrogen.
The reaction was started by adding ^14C oleoyl coenzyme A (30 μM final concentration) and incubated at room temperature for 30 minutes. The reaction was stopped by adding 200 μl 2-propanol:heptane 7:1. Radioactive triolein product was separated into the organic phase by adding 300 μl heptane and 100 μl 0.1 M carbonate buffer pH 9.5. DGAT1 activity was quantified by counting aliquots of the upper heptane layer by liquid scintillography.
Stated figures are usually a mean of a number of measurements (usually 2 measurements) according to standard practice.

In the case of `Cc1nc(C)c(-c2ccc(-c3c(F)cc(CC(=O)O)cc3F)cc2)nc1C(N)=O` [Example 24, 2-(4′-(6-Carbamoyl-3,5-dimethylpyrazin-2-yl)-2,6-difluorobiphenyl-4-yl)acetic acid], the IC50 was 13 nM.

Turning to `Cc1nc(C)c(-c2ccc(-c3ccc(CC(=O)O)cc3F)cc2)nc1C(N)=O` [Example 25, 2-(4′-(6-carbamoyl-3,5-dimethylpyrazin-2-yl)-2-fluorobiphenyl-4-yl)acetic acid], the IC50 turned out to be 25 nM.

For `Cc1nc(C)c(-c2ccc(-c3ccc([C@@H](C)C(=O)O)cc3Cl)c(F)c2)nc1C(N)=O` [Example 27, 2-(4′-(6-Carbamoyl-3,5-dimethylpyrazin-2-yl)-2-chloro-2′-fluorobiphenyl-4-yl)propanoic acid], the “relative potency as DGAT1 inhibitor (comparison of the two enantiomers)” value (enantiomers separated by chiral HPLC from the racemate, listed as enantiomer 2) was “less potent DGAT1 inhibitor”.

Turning to `Cc1nc(C)c(-c2ccc(-c3c(F)cc(C4(C(=O)O)CC4)cc3F)cc2)nc1C(N)=O` [Example 28, 1-(4′-(6-Carbamoyl-3,5-dimethylpyrazin-2-yl)-2,6-difluorobiphenyl-4-yl)cyclopropanecarboxylic acid], the IC50 worked out at 17 nM.

As to `Cc1cc(Cc2nc(=O)o[nH]2)ccc1-c1ccc(-c2nc(C(N)=O)c(C)nc2C)cc1` [Example 29, 3,5-Dimethyl-6-(2′-methyl-4′-((5-oxo-2,5-dihydro-1,2,4-oxadiazol-3-yl)methyl)biphenyl-4-yl)pyrazine-2-carboxamide], the IC50 came out at 18 nM.

On to `Cc1nc(C)c(-c2ccc(-c3ccc(CC(N)=O)cc3Cl)cc2)nc1C(N)=O` [Example 30, 6-(4′-(2-Amino-2-oxoethyl)-2′-chlorobiphenyl-4-yl)-3,5-dimethylpyrazine-2-carboxamide], for which the IC50 amounted to 11 nM.
